This is an account of results in patent US12565501B2, “Muscarinic acetylcholine M1 receptor antagonists” (Contineum Therapeutics, Inc., priority 2019, dated 2026).

Broadly, the IC50 is the concentration needed to halve the response being measured.

The assay deals with T1, human M1 receptor (Homo sapiens, UniProt P11229).
T1 sequence (P11229 1-460): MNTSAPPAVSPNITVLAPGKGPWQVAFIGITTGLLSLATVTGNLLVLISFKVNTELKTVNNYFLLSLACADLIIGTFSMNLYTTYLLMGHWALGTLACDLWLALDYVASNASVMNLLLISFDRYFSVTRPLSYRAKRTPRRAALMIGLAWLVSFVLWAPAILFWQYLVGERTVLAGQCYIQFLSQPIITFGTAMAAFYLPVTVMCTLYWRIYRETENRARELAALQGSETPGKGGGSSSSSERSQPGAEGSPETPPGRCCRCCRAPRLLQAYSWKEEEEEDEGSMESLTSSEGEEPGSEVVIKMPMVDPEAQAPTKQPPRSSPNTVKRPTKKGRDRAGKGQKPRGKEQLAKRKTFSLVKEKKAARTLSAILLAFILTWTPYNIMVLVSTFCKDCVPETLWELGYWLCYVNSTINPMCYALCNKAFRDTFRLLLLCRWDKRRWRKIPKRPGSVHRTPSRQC
As to the kind of experiment: In vitro functional assay of muscarinic acetylcholine receptor activity (aequorin calcium flux, reversal of EC80 acetylcholine response). Type of assay: cell-based. The conditions noted are these: CHO-K1 cells stably expressing human M1 receptor with aequorin; acetylcholine at EC80; calcium flux (luminescence); read-out: M1 IC50. The procedure, abridged:
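Antagonist mode: compound (final 0.1% DMSO) and coelenterazine-loaded M1/aequorin CHO-K1 cells incubated 30 min in the dark before EC80 acetylcholine addition. Calcium flash integrated as 40 s luminescence AUC; IC50 derived from dose-response curves.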
As to `COc1ccccc1C1(NCC(=O)N2CC3CCC(C2)N3c2ccc(C#N)cn2)CC1` [Example 97, 6-(3-((1-(2-methoxyphenyl)cyclopropyl)glycyl)-3,8-diazabicyclo[3.2.1]octan-8-yl)nicotinonitrile], the IC50 is below 10 nM.

Take `N#Cc1ccc(N2C3CCC2CN(C(=O)COC2(c4cc(F)ccn4)CCC2)C3)nc1` [Example 248, 6-(3-(2-(1-(4-fluoropyridin-2-yl)cyclobutoxy)acetyl)-3,8-diazabicyclo[3.2.1]octan-8-yl)nicotinonitrile]: the half-inhibitory concentration (IC50) is 100 to 1000 nM.

In the case of `N#Cc1ccc(N2C3CCC2CN(C(=O)CNC2(c4ccncc4)CC2)C3)nc1` [Example 102, 6-(3-((1-(pyridin-4-yl)cyclopropyl)glycyl)-3,8-diazabicyclo[3.2.1]octan-8-yl)nicotinonitrile], the IC50 was in the range of 100 to 1000 nM.

`N#Cc1ccc(N2[C@@H]3CC[C@H]2CN(C(=O)/C=C/C(F)(F)c2cccc4nccnc24)C3)nc1` [Example 125, 6-(3-((E)-4,4-difluoro-4-(quinoxalin-5-yl)but-2-enoyl)-3,8-diazabicyclo[3.2.1]octan-8-yl)nicotinonitrile]: the IC50 was below 10 nM.

Consider `COc1ccc(C2(OCC(=O)N3CC4CCC(C3)N4c3ccc(C#N)cn3)CCC2)cn1` [Example 257, 6-(3-(2-(1-(6-methoxypyridin-3-yl)cyclobutoxy)acetyl)-3,8-diazabicyclo[3.2.1]octan-8-yl)nicotinonitrile], for which the IC50 fell in the range of 1000 to 10000 nM.

As to `COc1cc(C(F)(F)COCC(=O)N2CC3CCC(C2)N3c2ccc(C#N)cn2)ccn1` [Example 277, 6-(3-(2-(2,2-difluoro-2-(2-methoxypyridin-4-yl)ethoxy)acetyl)-3,8-diazabicyclo[3.2.1]octan-8-yl)nicotinonitrile], the IC50 lay within 100 to 1000 nM.

On to “6-(3-(2-(1-(1-methyl-6-oxo-1,6-dihydropyridin-3-yl) cyclopropoxy)acetyl)-3,8-diazabicyclo[3.2.1]octan- 8-yl)nicotinonitrile [Example 301]”, for which the IC50 was 100 to 1000 nM.

For `N#Cc1ccc(N2C3CCC2CN(C(=O)COC2(c4ccc(F)cc4)CCC2)C3)nc1` [Example 234, 6-(3-(2-(1-(4-fluorophenyl)cyclobutoxy)acetyl)-3,8-diazabicyclo[3.2.1]octan-8-yl)nicotinonitrile], the IC50 was 10 to 100 nM.

On to `N#Cc1ccc(N2C3CCC2CN(C(=O)CNC2(c4cccc(F)c4F)CC2)C3)nc1` [Example 70, 6-(3-((1-(2,3-difluorophenyl)cyclopropyl)glycyl)-3,8-diazabicyclo[3.2.1]octan-8-yl)nicotinonitrile], for which the IC50 lay within 100 to 1000 nM.

For the compound `N#Cc1ccc(N2[C@@H]3CC[C@H]2CN(C(=O)CCN2CCC2c2ccc(F)cc2)C3)nc1` (mixture of isomers) [Example 23, 6-(3-(3-(2-(4-fluorophenyl)azetidin-1-yl)propanoyl)-3,8-diazabicyclo[3.2.1]octan-8-yl)nicotinonitrile], the half-maximal inhibitory concentration (IC50) lay within 1000 to 10000 nM.

Regarding `COc1cc([C@@H](C)NCCC(=O)N2C[C@H]3CC[C@@H](C2)N3c2ccc(C#N)cn2)ccn1` [Example 21, 6-(3-(3-(((R)-1-(2-methoxypyridin-4-yl)ethyl)amino)propanoyl)-3,8-diazabicyclo[3.2.1]octan-8-yl)nicotinonitrile], the IC50 lay within 100 to 1000 nM.

As to `N#Cc1ccc(N2C3CCC2CN(C(=O)COC2(c4cccc(F)c4)CCC2)C3)nc1` [Example 235, 6-(3-(2-(1-(3-fluorophenyl)cyclobutoxy)acetyl)-3,8-diazabicyclo[3.2.1]octan-8-yl)nicotinonitrile], the half-inhibitory concentration (IC50) fell in the range of 10 to 100 nM.

In the case of `N#Cc1cnc(N2[C@@H]3CC[C@H]2CN(C(=O)CCNC2(c4ccc(F)c(F)c4)CC2)C3)cn1` [Example 45, 5-(3-(3-((1-(3,4-difluorophenyl)cyclopropyl)amino)propanoyl)-3,8-diazabicyclo[3.2.1]octan-8-yl)pyrazine-2-carbonitrile], the IC50 fell in the range of 10 to 100 nM.

For the compound `CC(COCC(=O)N1CC2CCC(C1)N2c1ccc(C#N)cn1)c1ccccc1` (stereo in doubt) [Example 185, 6-(3-(2-((S)-2-phenylpropoxy)acetyl)-3,8-diazabicyclo[3.2.1]octan-8-yl)nicotinonitrile], the IC50 is 100 to 1000 nM.

For `N#Cc1ccc(N2C3CCC2CN(C(=O)CCOCC2(c4ccccc4)CC2)C3)nc1` [Example 307, 6-(3-(3-((1-phenylcyclopropyl)methoxy)propanoyl)-3,8-diazabicyclo[3.2.1]octan-8-yl)nicotinonitrile], the IC50 fell in the range of 100 to 1000 nM.

With `N#Cc1ccc(N2C3COCC2CN(C(=O)CNC2(c4ccc(F)cc4F)CC2)C3)nc1` [Example 78, 6-(7-((1-(2,4-difluorophenyl)cyclopropyl)glycyl)-3-oxa-7,9-diazabicyclo[3.3.1]nonan-9-yl)nicotinonitrile], the IC50 was 100 to 1000 nM.

Take `N#Cc1ccc(N2C3CCC2CN(C(=O)CNC2(c4ccc(F)cc4F)CCC2)C3)nc1` [Example 115, 6-(3-((1-(2,4-difluorophenyl)cyclobutyl)glycyl)-3,8-diazabicyclo[3.2.1]octan-8-yl)nicotinonitrile]: the half-maximal inhibitory concentration (IC50) lay within 10 to 100 nM.

In the case of `N#Cc1ccc(N2C3CCC2CN(C(=O)COC2(c4cncc(OCC(F)(F)F)c4)CCC2)C3)nc1` [Example 314, 6-(3-(2-(1-(5-(2,2,2-trifluoroethoxy)pyridin-3-yl)cyclobutoxy)acetyl)-3,8-diazabicyclo[3.2.1]octan-8-yl)nicotinonitrile], the IC50 lay in the range of 10 to 100 nM.

For the compound `N#Cc1ccc(N2[C@@H]3CC[C@H]2CN(C(=O)CCNC2(c4ccc(Cl)c(F)c4)CC2)C3)nc1` [Example 34, 6-(3-(3-((1-(4-chloro-3-fluorophenyl)cyclopropyl)amino)propanoyl)-3,8-diazabicyclo[3.2.1]octan-8-yl)nicotinonitrile], the concentration for half-maximal inhibition (IC50) is below 10 nM.

For the compound `COc1ccncc1C(F)(F)/C=C/C(=O)N1C[C@H]2CC[C@@H](C1)N2c1ccc(C#N)cn1` [Example 143, 6-(3-((E)-4,4-difluoro-4-(4-methoxypyridin-3-yl)but-2-enoyl)-3,8-diazabicyclo[3.2.1]octan-8-yl)nicotinonitrile], the IC50 was below 10 nM.

`CC(C)(OCC(=O)N1CC2CCC(C1)N2c1ccc(C#N)cn1)c1cccc2nccn12` (racemic) [Example 204, 6-(3-(2-((2-(imidazo[1,2-a]pyridin-5-yl)propan-2-yl)oxy)acetyl)-3,8-diazabicyclo[3.2.1]octan-8-yl)nicotinonitrile]: the IC50 lay within 100 to 1000 nM.

`COc1ccncc1C(F)(F)CCC(=O)N1CC2CCC(C1)N2c1ccc(C#N)cn1` [Example 161, 6-(3-(4,4-difluoro-4-(4-methoxypyridin-3-yl)butanoyl)-3,8-diazabicyclo[3.2.1]octan-8-yl)nicotinonitrile]: the IC50 is below 10 nM.

As to `Cc1nn(C)c(C)c1C(C)OCC(=O)N1CC2CCC(C1)N2c1ccc(C#N)cn1` (racemic) [Example 198, 6-(3-(2-(1-(1,3,5-trimethyl-1H-pyrazol-4-yl)ethoxy)acetyl)-3,8-diazabicyclo[3.2.1]octan-8-yl)nicotinonitrile], the 50% inhibitory concentration (IC50) was 10 to 100 nM.

Take `N#Cc1ccc(N2C[C@H]3C[C@@H]2CN3C(=O)CNC2(c3ccc(F)cc3F)CC2)nc1` [Example 80, 6-((1R,4R)-5-((1-(2,4-difluorophenyl)cyclopropyl)glycyl)-2,5-diazabicyclo[2.2.1]heptan-2-yl)nicotinonitrile]: the IC50 is above 1000 nM.
